Assay results from patent US20200069648A1, “HALOALLYLAMINE PYRAZOLE DERIVATIVE INHIBITORS OF LYSYL OXIDASES AND USES THEREOF” (Pharmaxis Ltd., priority 2017, published 2020).
Counter-ions that a name gives are not always drawn.

Assays:
Bovine LOX = molecular target: T1, Bovine LOX (Bos taurus, UniProt P33072); experiment: LOX amine oxidase inhibition, peroxidase-coupled Amplex Red assay; type: biochemical; details: 30 min preincubation at 37° C., putrescine substrate
T1 sequence (P33072 170-418): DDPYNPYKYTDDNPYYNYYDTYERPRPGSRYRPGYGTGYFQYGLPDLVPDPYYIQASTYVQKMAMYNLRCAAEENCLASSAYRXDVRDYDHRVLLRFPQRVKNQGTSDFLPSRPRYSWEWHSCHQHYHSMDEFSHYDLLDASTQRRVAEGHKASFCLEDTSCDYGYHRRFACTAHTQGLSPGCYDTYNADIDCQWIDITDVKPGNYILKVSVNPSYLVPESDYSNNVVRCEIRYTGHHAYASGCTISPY
Summary of the method: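 Bovine LOX in 1.2 M urea, 50 mM sodium borate pH 8.2 […]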

Recombinant human MAO-B = molecular target: T2, Recombinant human MAO-B (Homo sapiens, UniProt P27338); experiment: Human recombinant MAO-B inhibition; type: biochemical; details: benzylamine 100 μM
T2 construct: purchased Sigma Aldrich
T2 sequence (P27338 1-520): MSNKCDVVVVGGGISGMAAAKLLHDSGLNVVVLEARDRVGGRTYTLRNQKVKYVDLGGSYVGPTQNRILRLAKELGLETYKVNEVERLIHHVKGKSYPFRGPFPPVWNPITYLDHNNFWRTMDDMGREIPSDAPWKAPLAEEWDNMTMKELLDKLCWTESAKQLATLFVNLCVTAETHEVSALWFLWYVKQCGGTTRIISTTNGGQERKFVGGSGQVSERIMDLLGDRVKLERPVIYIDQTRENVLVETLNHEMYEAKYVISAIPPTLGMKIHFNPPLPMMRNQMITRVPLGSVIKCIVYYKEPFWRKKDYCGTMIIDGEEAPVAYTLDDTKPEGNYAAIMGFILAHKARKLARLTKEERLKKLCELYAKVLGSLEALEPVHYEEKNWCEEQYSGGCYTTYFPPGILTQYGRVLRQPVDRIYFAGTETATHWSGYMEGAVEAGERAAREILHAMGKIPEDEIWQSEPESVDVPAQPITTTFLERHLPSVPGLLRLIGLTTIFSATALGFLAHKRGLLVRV
Procedure: Method to Determine the Ability of Compounds of Formula I to Inhibit Human Recombinant MAO-B
The specificity of the compounds of this invention was tested by determining their ability to inhibit MAO-B activities in vitro. Recombinant human MAO-B (0.06 mg/mL; Sigma Aldrich) was used as source of MAO-B enzyme activities. The assay was performed in a similar way as for human SSAO/VAP-1 (Example 46) except, the substrate benzylamine was used at 100 μM.

Compound	IC50 (Bovine LOX) [µM]	IC50 (Recombinant human MAO-B) [µM]
Cc1nn(C/C(F)=C/CN)c(C)c1Cc1ccc(S(=O)(=O)N(C)C)c(Cl)c1 [Compound 15, (Z)-4-((1-(4-amino-2-fluorobut-2-en-1-yl)-3,5-dimethyl-1H-pyrazol-4-yl)methyl)-2-chloro-N,N-dimethylbenzenesulfonamide hydrochloride]	< 10	> 30
Cc1nn(C/C(F)=C/CN)c(C)c1Cc1ccc(S(=O)(=O)N(C)C)c(OC(F)(F)F)c1 [Compound 17, (Z)-4-((1-(4-amino-2-fluorobut-2-en-1-yl)-3,5-dimethyl-1H-pyrazol-4-yl)methyl)-N,N-dimethyl-2-(trifluoromethoxy)benzenesulfonamide hydrochloride]	> 10	> 30
Cc1nn(Cc2cc(F)c(S(=O)(=O)N(C)C)cc2F)c(C)c1C/C(F)=C/CN [Compound 25, (Z)-4-((4-(4-amino-2-fluorobut-2-en-1-yl)-3,5-dimethyl-1H-pyrazol-1-yl)methyl)-2,5-difluoro-N,N-dimethylbenzenesulfonamide hydrochloride]	< 10	> 30
CNS(=O)(=O)c1cc(F)c(Cn2nc(C)c(C/C(F)=C/CN)c2C)cc1F [Compound 26, (Z)-4-((4-(4-amino-2-fluorobut-2-en-1-yl)-3,5-dimethyl-1H-pyrazol-1-yl)methyl)-2,5-difluoro-N-methylbenzenesulfonamide hydrochloride]	< 10	> 30
CCOC(=O)c1c(Cc2ccc(S(=O)(=O)N(C)C)cc2)c(C)nn1C/C(F)=C/CN [Compound 27, (Z)-ethyl 1-(4-amino-2-fluorobut-2-enyl)-4-(4-(N,N-dimethylsulfamoyl)benzyl)-3-methyl-1H-pyrazole-5-carboxylate hydrochloride]	< 10	> 30
CCOC(=O)c1nn(C/C(F)=C/CN)c(C)c1Cc1ccc(S(=O)(=O)N(C)C)cc1 [Compound 28, (Z)-ethyl 1-(4-amino-2-fluorobut-2-enyl)-4-(4-(N,N-dimethylsulfamoyl)benzyl)-5-methyl-1H-pyrazole-3-carboxylate hydrochloride]	< 10	> 30
Cc1nn(C/C(F)=C/CN)c(C(=O)N(C)C)c1Cc1ccc(S(=O)(=O)N(C)C)cc1 [Compound 29, (Z)-1-(4-amino-2-fluorobut-2-enyl)-4-(4-(N,N-dimethylsulfamoyl)benzyl)-N,N,3-trimethyl-1H-pyrazole-5-carboxamide hydrochloride]	< 10	> 30
Cc1nn(C/C(F)=C/CN)c(C(=O)O)c1Cc1ccc(S(=O)(=O)N(C)C)cc1 [Compound 30, (Z)-1-(4-amino-2-fluorobut-2-enyl)-4-(4-(N,N-dimethylsulfamoyl)benzyl)-3-methyl-1H-pyrazole-5-carboxylic acid hydrochloride]	> 10	> 30
Cc1c(Cc2ccc(S(=O)(=O)N(C)C)cc2)c(C(=O)O)nn1C/C(F)=C/CN [Compound 31, (Z)-1-(4-amino-2-fluorobut-2-enyl)-4-(4-(N,N-dimethylsulfamoyl)benzyl)-5-methyl-1H-pyrazole-3-carboxylic acid hydrochloride]	> 10	> 30
Cc1c(Cc2ccc(S(=O)(=O)N(C)C)cc2)c(C(=O)N(C)C)nn1C/C(F)=C/CN [Compound 32, (Z)-1-(4-amino-2-fluorobut-2-enyl)-4-(4-(N,N-dimethylsulfamoyl)benzyl)-N,N,5-trimethyl-1H-pyrazole-3-carboxamide hydrochloride]	< 10	> 30

The next lines start with the values.

IC50 (Bovine LOX) [µM]	IC50 (Recombinant human MAO-B) [µM]	Compound
< 10	> 30	Cc1nn(C/C(F)=C/CN)c(C)c1Cc1ccc(S(C)(=O)=O)c(Cl)c1 [Compound 16, (Z)-4-(4-(3-chloro-4-(methylsulfonyl)benzyl)-3,5-dimethyl-1H-pyrazol-1-yl)-3-fluorobut-2-en-1-amine hydrochloride]
< 10	> 30	Cc1nn(C/C(F)=C/CN)c(C)c1Cc1ccc(S(=O)(=O)N(C)C)c(C(F)(F)F)c1 [Compound 18, (Z)-4-((1-(4-amino-2-fluorobut-2-en-1-yl)-3,5-dimethyl-1H-pyrazol-4-yl)methyl)-N,N-dimethyl-2-(trifluoromethyl)benzenesulfonamide hydrochloride]
< 10	> 30	Cc1nn(C/C(F)=C/CN)c(C)c1Cc1cc(F)c(S(=O)(=O)N(C)C)cc1F [Compound 19, (Z)-4-((1-(4-amino-2-fluorobut-2-en-1-yl)-3,5-dimethyl-1H-pyrazol-4-yl)methyl)-2,5-difluoro-N,N-dimethylbenzenesulfonamide hydrochloride]
< 10	> 30	CNS(=O)(=O)c1ccc(Cn2nc(C)c(C/C(F)=C/CN)c2C)c(Cl)c1 [Compound 20, (Z)-4-((4-(4-amino-2-fluorobut-2-en-1-yl)-3,5-dimethyl-1H-pyrazol-1-yl)methyl)-3-chloro-N-methylbenzenesulfonamide hydrochloride]
< 10	> 30	Cc1nn(Cc2ccc(S(C)(=O)=O)cc2Cl)c(C)c1C/C(F)=C/CN [Compound 21, (Z)-4-(1-(2-chloro-4-(methylsulfonyl)benzyl)-3,5-dimethyl-1H-pyrazol-4-yl)-3-fluorobut-2-en-1-amine hydrochloride]
< 10	> 30	CNS(=O)(=O)c1ccc(Cn2nc(C)c(C/C(F)=C/CN)c2C)cc1Cl [Compound 22, (Z)-4-((4-(4-amino-2-fluorobut-2-en-1-yl)-3,5-dimethyl-1H-pyrazol-1-yl)methyl)-2-chloro-N-methylbenzenesulfonamide hydrochloride]
< 10	> 30	CNS(=O)(=O)c1ccc(Cn2nc(C)c(C/C(F)=C/CN)c2C)c(C(F)(F)F)c1 [Compound 23, (Z)-4-((4-(4-amino-2-fluorobut-2-en-1-yl)-3,5-dimethyl-1H-pyrazol-1-yl)methyl)-N-methyl-3-(trifluoromethyl)benzenesulfonamide hydrochloride]
< 10	> 30	Cc1nn(Cc2ccc(S(C)(=O)=O)c(Cl)c2)c(C)c1C/C(F)=C/CN [Compound 24, (Z)-4-(1-(3-chloro-4-(methylsulfonyl)benzyl)-3,5-dimethyl-1H-pyrazol-4-yl)-3-fluorobut-2-en-1-amine hydrochloride]
